Earlier results as cited in US20110251195A1, “ADRB2 GENE PO[…] INTRAOCULAR PRESSURE RESPONSE TO TOPICAL BETA-BLOCKERS” (Marshfield Clinic, priority 2008, published 2011).

Tested on: ADRB2 gene product (Gln27 / Glu27)
Conditions: Glu27 versus Gln27 ADRB2 variant

In the case of `CC(C)NCC(O)c1ccc(O)c(O)c1` (stereo not shown) [isoprenaline], the “fold greater isoprenaline concentration necessary to down-regulate Glu27 to the same extent as Gln27” value is given as 60 fold.
